In US4952565A (priority 1986, dated 1990):
Where two headings read alike, the source gives them in different places.

What was measured:
[1] = Dissolution profiles/rates on Sartorius Dissolution Model SM 16751; format: physicochemical
Method: The quantities of the dissolved (MG) and of the resorbed (Mi) active ingredient were determined using a Sartorius Dissolution Model SM 16751 (Sartorius Dissolution Model, Instruction Manual, Sartorius Membranfilter, Gottingen 1972).

[2] = Dissolution rates, Paddle Method, Apparatus 2 USP XXI, artificial gastric and intestinal juice; format: physicochemical; conditions: 37 °C, 100 rpm, equ. 400 mg
Method: The dissolution tests were performed in 0.027N HCl and 0.06N HCl (artificial gastric juice) and in artificial intestinal juice, pH 6.0, at the temperature of 37° C. The volume of the artificial biological fluids was 1000 ml. The stirring rate of the paddle mixer was 100 rpm.

[3] = In vitro diffusion/resorption test, Stricker method, Sartorius model; format: in vitro ADME; conditions: for Papp: not told, read-out: In vitro diffusion rate constant (kd) (converted)
Method: The resorption tests were performed according to the Stricker method on a Sartorius Dissolution Model (Sartorius Dissolution Model, Instruction Manual, Sartorius Membranfilter, Gottingen 1972). The diffusion rates of ibuproxam through artificial lipid membranes at different pH values were determined. On the basis of the found diffusion rate constants (kd) the in vitro resorption rate constants (ka) were calculated.

[4] = In vitro ibuproxam release from pharmaceutical forms, Paddle Method USP XXI; format: physicochemical; conditions: 0.027 HCl, 37 °C, 100 rpm; ibuproxam and Ibudros 400 mg, complex equiv. to 200 mg; mean of 3

CC(C)Cc1ccc(C(C)C(=O)NO)cc1 (stereo not shown) [ibuproxam, 2-(4-isobutylphenyl)-propiohydroxamic acid]
dissolution rate (kdiss) [1]: 0.00017 s⁻¹ | effect of pH of the biological fluids on dissolution rate, in words [1]: does not affect the dissolution rate | % of dissolved ibuproxam ([2]; 0.027 N HCl pH 1.6, 5 min): 21.4% | % of dissolved ibuproxam ([2]; 0.027 N HCl pH 1.6, 15 min): 28.1% | % of dissolved ibuproxam ([2]; 0.027 N HCl pH 1.6, 30 min): 33.3% | % of dissolved ibuproxam ([2]; 0.027 N HCl pH 1.6, 45 min): 37.4% | % of dissolved ibuproxam ([2]; 0.027 N HCl pH 1.6, 60 min): 43.1% | % of dissolved ibuproxam ([2]; 0.06 N HCl pH 1.2, 5 min): 21.8% | % of dissolved ibuproxam ([2]; 0.06 N HCl pH 1.2, 15 min): 29.8% | % of dissolved ibuproxam ([2]; 0.06 N HCl pH 1.2, 30 min): 37.4% | % of dissolved ibuproxam ([2]; 0.06 N HCl pH 1.2, 45 min): 40.4% | % of dissolved ibuproxam ([2]; 0.06 N HCl pH 1.2, 60 min): 41.7% | % of dissolved ibuproxam ([2]; artificial intestinal juice pH 6.0, 5 min): 10.2% | % of dissolved ibuproxam ([2]; artificial intestinal juice pH 6.0, 15 min): 21.2% | % of dissolved ibuproxam ([2]; artificial intestinal juice pH 6.0, 30 min): 27.7% | % of dissolved ibuproxam ([2]; artificial intestinal juice pH 6.0, 45 min): 32.7% | % of dissolved ibuproxam ([2]; artificial intestinal juice pH 6.0, 60 min): 33.3% | Papp ([3]; pH 1.2, average of 4 tests): 235 ×10⁻⁶ cm/s | Papp ([3]; pH 3.0, average of 4 tests): 238 ×10⁻⁶ cm/s | Papp ([3]; pH 6.0, average of 4 tests): 233 ×10⁻⁶ cm/s | In vitro resorption rate constant (ka) ([3]; pH 1.2, calculated from kd with G = 4.3): 0.060 min⁻¹ | In vitro resorption rate constant (ka) ([3]; pH 6.0, calculated from kd with G = 10.0): 0.138 min⁻¹ | % dissolved within 15 min [4]: 35.8% | % dissolved within 30 min [4]: 43.4% | % dissolved within 60 min [4]: 54.5%
